Laboratory results taken from paper PMC5797802, “The A2B Adenosine Receptor Modulates the Epithelial– Mesenchymal Transition through the Balance of cAMP/PKA and MAPK/ERK Pathway Activation in Human Epithelial Lung Cells” (Frontiers in Pharmacology, 2018).

Tests used:
[1] = molecular target: T1, A2B adenosine receptor (A2BAR) (Homo sapiens, UniProt P29275); assay: reversal at […] of BAY […]-6583-induced cAMP and ERK1/[…] phosphorylation in A549 cells; assay type: cell-based
T1 construct: gene ADORA2B
T1 sequence (P29275 1-332): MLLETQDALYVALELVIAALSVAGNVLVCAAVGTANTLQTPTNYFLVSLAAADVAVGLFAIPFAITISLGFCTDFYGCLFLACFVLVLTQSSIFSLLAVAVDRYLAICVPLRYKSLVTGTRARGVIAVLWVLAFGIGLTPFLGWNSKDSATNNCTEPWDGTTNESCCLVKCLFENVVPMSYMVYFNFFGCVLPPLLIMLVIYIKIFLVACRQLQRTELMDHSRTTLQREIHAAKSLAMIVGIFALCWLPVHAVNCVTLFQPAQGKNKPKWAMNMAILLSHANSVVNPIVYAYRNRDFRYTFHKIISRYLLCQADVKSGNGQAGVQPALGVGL

[2] = molecular target: T1, A2B adenosine receptor (A2BAR); assay: agonist-induced cAMP production (AlphaLISA) in A549 cells with endogenous receptor; effect reversed by MRS […]; assay type: cell-based

Compound: CCCn1c(=O)c2[nH]c(-c3ccc(OCC(=O)Nc4ccc(C(C)=O)cc4)cc3)nc2n(CCC)c1=O [MRS1706, N-(4-acetylphenyl)-2-[4-(2,3,6,7-tetrahydro-2,6-dioxo-1,3-dipropyl-1H-purin-8-yl)phenoxy]-acetamide]
- reversal at 1 μM of BAY 60-6583-induced cAMP and ERK1/2 phosphorylation in A549 [1]: The effects evoked by A2BAR stimulation were almost completely reversed by the A2BAR inverse agonist MRS1706

Compound: N#Cc1c(N)nc(SCC(N)=O)c(C#N)c1-c1ccc(OCC2CC2)cc1 [BAY 60-6583, 2-[6-amino-3,5-dicyano-4-[4-(cyclopropylmethoxy)phenyl]pyridin-2-ylsulfanyl] acetamide]
- EC50 [2]: 0.0172 ± 0.0025 µM
